Values after ≈ are worked out from the molar mass of the structure shown.
What was measured:
[1] = tested on: Wolbachia in C6/36 (wAlbB) cells; test: Secondary concentration response HTS (IC50) anti-Wolbachia screen in C6/36 (wAlbB) insect cells; assay type: cell-based, Wolbachia pipientis wAlbB (in Aedes albopictus C6/36 cells); conditions: Wolbachia, 168 h, 7-day incubation, 10-point concentration range
Method: Initially C6/36 (wAlbB) cells (insect cells stably infected with the Wolbachia target) from a single cryopreserved batch were recovered over 7 days prior to plating into 384-well assay ready plates (containing the test compounds), using a semi-automated process allowing for daily batches of ~150 plates, set up 4 days per week for 8 weeks. After a 7-day incubation period with the test compounds the plates were moved into the second fully automated stage (using the Agilent Technologies BioCel system) involving formaldehyde fixation, DNA staining of the insect cell nuclei (Hoechst) for toxicity analysis and antibody staining specific to the intracellular Wolbachia (wBmPAL primary antibody and far-red secondary antibody). In the final stage the fixed and stained plates from stage 2 were processed through automated data acquisition (High Res Biosolutions system, incorporating EnVision™ and acumen® plate readers). This industry standardised assay was then used to screen AstraZeneca’s full library of 1.3 million compounds within 10 weeks. In total this HTS included 30 × 3 week assays covering 3835 × 384-well plates. This primary HTS generated 20,255 hits defined as >80% reduction in Wolbachia with <60% toxicity to the host insect cell (eliminating false positives). This represents an overall hit rate of 1.56%. These compounds are depicted in chemical space in Fig. 2 (black points)[21].
The mosquito (Aedes albopictus) derived cell line C6/36 (ATCC® CRL 1660), stably infected with Wolbachia pipientis wAlbB (C6/36(wAlbB)), was maintained in Leibovitz L15 medium containing 2 mM L-glutamine, 1% nonessential amino acids, 2% tryptose phosphate broth and 20% heat-inactivated foetal bovine serum (FBS) at 26 °C[18]. This screen exclusively used cells from the large-scale cryopreserved batch produced as part of this campaign by culturing the cells at scale before cryopreservation (90% FBS and 10% DMSO). This produced a cell bank of 190 × 1 ml cryovials containing 3 × 10^7 cells per vial.
(§1) On day 0, a single cryovial was recovered and the cells washed before being transferred to a T225 cm^2 flask. After a 7-day recovery Wolbachia infection level (quality control (QC)) was checked by SYTO®11 DNA staining of both the host cell nuclei and intracellular Wolbachia. The end-point read out from the Operetta® high content imaging system (Perkin Elmer) was the percentage of cells infected with Wolbachia. This was obtained from cytoplasm texture analysis by the associated Harmony® software. Cells with a >50% of the population infected with Wolbachia were classed as having a good Wolbachia level and therefore used for screening through addition of 2000 cells per well into assay ready 384-well plates containing the test compounds. […] Each plate included on-board controls; vehicle/DMSO (total/maximum Wolbachia signal) or doxycycline 5 µM (null/minimum Wolbachia signal), resulting in single shot screening of 352 compounds per plate for the primary screen. […] QC plates were also created including full columns of the following controls; DMSO (total/max), 5 μM doxycycline (null/min), as well as 50 nM doxycycline (reference/medium Wolbachia signal). Daily batches contained ~150 compound plates in addition to the QC plates. Each compound plate was foil sealed before incubation for 7 days at 26 °C, 95% humidity and atmospheric air.
After 7 days of drug incubation, the plates were loaded into the fully automated BioCel system which performed the following additions; fixation and DNA staining (1.8% formaldehyde + 0.6 µg/ml Hoechst 33342, 20 min), permeabilisation (80 μl of PBS + 0.25% Triton-X 100, 30 min), blocking (PBS + 6% BSA, 40 min), overnight incubation in the Wolbachia-specific anti-wBmPAL primary antibody[34] […]

THP-1 cells = test: Mammalian cell viability counter-screen (CellTiter-Blue); assay type: cell-based, human; conditions: Homo sapiens, 48 h, read-out: HTS IC50 mammalian toxicity
Method: The human monocytic THP-1 cell line (ATCC® TIB-202) used for mammalian cytotoxicity evaluation was routinely cultured in roller bottles. Growth media consisted of RPMI 1640 supplemented with 10% FBS and 2 mM L-glutamine. Cells were maintained at 37 °C with 95% humidity in 5% CO2 in a shaking incubator.
All compounds selected for secondary IC50 screen were tested in parallel for mammalian cell viability using the CellTiter-Blue® Cell Viability Assay. THP1 cells were removed from culture and plated at 1 × 10^4 cells/well (40 µl) into 384-well assay ready plates and incubated at 37 °C, 5% CO2 for 48 h at 95% humidity. After the addition of CellTiter-Blue Viability reagent (8 µl of a 1:6 dilution) the assay plates were incubated for a further 2 h before fluorescence detected using a PerkinElmer EnVision™ plate reader.

[2] = tested on: Wolbachia in C6/36 (wAlbB) cells; test: Confirmatory re-assessment in the insect cell screen (cell assay EC50); assay type: cell-based, Wolbachia pipientis wAlbB (in Aedes albopictus C6/36 cells); conditions: Wolbachia, C6/36; insect cell screen, re-sourced or re-synthesised samples
Description: To further validate the hit molecules from these 9 clusters, samples were sourced either from the AstraZeneca compound inventory or through re-synthesis. All 18 samples were characterised by nuclear magnetic resonance (NMR) and mass spectroscopy to confirm their chemical structures and by HPLC/LCMS to establish their purity (Supplementary Table 5 and Supplementary Data 1). These samples were also subject to confirmatory re-assessment in both the insect cell screen and Mf assays for anti-Wolbachia potency alongside confirmation of DMPK properties (LogD7.4, aqueous solubility in pH 7.4 PBS, human microsomal turnover, rat hepatocyte turnover and human plasma protein binding) (Fig. 4, Supplementary Figure 1 and Supplementary Table 4).
as §1

[3] = tested on: Wolbachia within Brugia malayi Mf; test: B. malayi microfilarial (Mf) in vitro anti-Wolbachia assay (wsp:gst qPCR); assay type: cell-based; conditions: Brugia malayi, 144 h; B. malayi Mf, 6 days; read-out: Mf EC50
Method: The Mf were obtained by peritoneal lavage, using a catheter, of gerbils (Meriones unguiculatus) harbouring a patent infection of B. malayi. Mf were purified using a PD-10 desalting column (Fisher), centrifuged (311 RCF for 5 min at room temperature) before the addition of 8000 Mf/well of a 96-well plate (100 µl per well) in complete media consisting of RPMI supplemented with 10% FBS, 1% penicillin streptomycin and 1% amphotericin B. […] Each plate contained doxycycline (5 µM) and DMSO controls. After incubation at 37 °C for 6 days in 5% CO2, visual assessment of Mf motility was performed and scored from 0 to 4 per well (where 0 = no movement and 4 = highly motile). DNA extraction per sample was performed using the QIAmp DNA Mini Kit before quantitative PCR was performed to obtain the ratio of Wolbachia Surface Protein gene copy number (wsp) to Glutathione S-Transferase gene copy number (gst)[36]. The DNA was amplified using the primers as indicated in Supplementary Table 6.
(§2) The wsp:gst ratio data allowed for normalisation of the Wolbachia level to the Mf biomass for each well. The change in wsp:gst for each compound compared to the DMSO control was calculated before normalisation to the onboard doxycycline control to allow for inter-assay comparison.

Rat hepatocyte clearance = assay type: in vitro ADME
Description: (§3) The DMPK data used for triaging compounds, including LogD7.4, aqueous solubility, plasma protein binding, microsome and hepatocyte clearance measurements, were generated using the standard AstraZeneca UK high-throughput platform[37],[38].

[4] = Human microsome clearance; assay type: in vitro ADME; conditions: human, human microsomes
Description: as §3

LogD7.4 = assay type: physicochemical; conditions: pH 7.4
Description: as §3

[5] = Aqueous solubility in pH 7.4 PBS; assay type: physicochemical; conditions: PBS pH 7.4, aqueous buffer; pH 7.4 PBS; read-out: Aqueous solubility in pH7.4 PBS
Description: as §3

[6] = Human plasma protein binding; assay type: in vitro ADME; conditions: plasma
Description: as §3

[7] = tested on: Wolbachia within Brugia malayi Mf; test: Anti-Wolbachia time-kill analysis (timed wash-out) in B. malayi Mf; assay type: cell-based; conditions: for Exposure time to achieve a maximal Wolbachia reduction: 10x EC50, maximal reduction 70–90% normalised to vehicle control
Description: To compare the dynamics of the in vitro phenotype of our hits with existing anti-Wolbachia therapies, we employed a timed wash-out strategy (Fig. 5) at 10x EC50 to establish the anti-Wolbachia time-kill kinetics of the selected chemotypes (1A–5A), using five replicates per compound. […].
Fig. 5 Anti-Wolbachia time-kill analysis. Representatives from the top five clusters (1A–5A), as well as established anti-Wolbachia antibacterials (doxycycline (white), minocycline (grey), rifampicin (black)) were assessed after exposure for 1 day and 2 days before washing and further incubation until the standard 6-day read out. wsp:gst ratio was normalised to the DMSO vehicle control resulting in a read out of mean percentage reduction from control. Doxycycline day 6 treatment represents the result for exposure to doxycycline at 5 µM for a full 6 days (no wash). The box extends from the 25th to the 75th percentile with the median presented by the central line. The whiskers are set at the minimum and maximum therefore indicating the range from five replicates. The cluster number is indicated by colour: cluster 1 (dark blue), 2 (magenta), 3 (teal), 4 (dark gold), and 5 (light blue)
The Mf were obtained by peritoneal lavage, using a catheter, of gerbils (Meriones unguiculatus) harbouring a patent infection of B. malayi. Mf were purified using a PD-10 desalting column (Fisher), centrifuged (311 RCF for 5 min at room temperature) before the addition of 8000 Mf/well of a 96-well plate (100 µl per well) in complete media consisting of RPMI supplemented with 10% FBS, 1% penicillin streptomycin and 1% amphotericin B. Compounds were diluted in complete media and 100 µl was added per well, providing a final concentration of 5 µM, with five replicates per compound. Each plate contained doxycycline (5 µM) and DMSO controls. After incubation at 37 °C for 6 days in 5% CO2, visual assessment of Mf motility was performed and scored from 0 to 4 per well (where 0 = no movement and 4 = highly motile). DNA extraction per sample was performed using the QIAmp DNA Mini Kit before quantitative PCR was performed to obtain the ratio of Wolbachia Surface Protein gene copy number (wsp) to Glutathione S-Transferase gene copy number (gst)[36]. The DNA was amplified using the primers as indicated in Supplementary Table 6.
as §2

Row | Compound | IC50 [1] | IC50 (THP-1 cells) | EC50 [2] | EC50 [3] | Rat hepatocytes CLint (Rat hepatocyte clearance) | microsomal CLint [4] | logD (LogD7.4) | solubility [5] | fraction unbound [6] | Wolbachia reduction after a single day of exposure ([7]; 10x EC50, 1 day exposure, wash, 6-day read out, normalised to vehicle control) | Exposure time to achieve a maximal Wolbachia reduction [7]
1 | CN(Cc1cccc(Br)c1)S(=O)(=O)c1ccc2c(c1)C(=O)NCC2 [8B, N-(3-bromobenzyl)-N-methyl-1-oxo-1,2,3,4-tetrahydroisoquinoline-7-sulfonamide] | 535 nM | > 30600 nM | 873 nM | > 5000 nM | > 300 µl/min/1x106 cells | > 300 µL/min/mg | 3.1 | 6 µM (≈ 2.46 µg/mL) | 0.034 | – | –
2 | O=C(Cc1cc(F)cc(F)c1)NCC(=O)NC1C(=O)Nc2ccccc2SC1c1ccccc1 (centres unmarked) [9A, 2-(3,5-difluorophenyl)-N-(2-oxo-2-((4-oxo-2-phenyl-2,3,4,5-tetrahydrobenzo[b][1,4]thiazepin-3-yl)amino)ethyl)acetamide] | 181 nM | > 30600 nM | 180 nM | > 5000 nM | 28.0 µl/min/1x106 cells | 228 µL/min/mg | 3 | 105 µM (≈ 50.6 µg/mL) | 0.12 | – | –
3 | O=C(NCCCn1ccnc1)NC1C(=O)Nc2ccccc2SC1c1cc(F)ccc1F (centres unmarked) [9B, 1-(3-(1H-imidazol-1-yl)propyl)-3-(2-(2,5-difluorophenyl)-4-oxo-2,3,4,5-tetrahydrobenzo[b][1,4]thiazepin-3-yl)urea] | 475 nM | > 30600 nM | 483 nM | 2700 nM | 171.6 µl/min/1x106 cells | > 300 µL/min/mg | 3.8 | 43 µM (≈ 19.7 µg/mL) | 0.016 | – | –
4 | C[C@H]1c2cccc(O)c2C(=O)C2=C(O)[C@]3(O)C(=O)C(C(N)=O)=C(O)[C@@H](N(C)C)[C@@H]3[C@@H](O)[C@@H]21 [doxycycline, reference compound] | – | – | – | 250 nM | – | – | – | – | – | 9% | > 2 days
5 | CN(C)c1ccc(O)c2c1C[C@H]1C[C@H]3[C@H](N(C)C)C(O)=C(C(N)=O)C(=O)[C@@]3(O)C(O)=C1C2=O [minocycline, reference compound] | – | – | – | – | – | – | – | – | – | – | > 2 days
6 | CO[C@H]1/C=C/O[C@@]2(C)Oc3c(C)c(O)c4c(O)c(c(/C=N/N5CCN(C)CC5)c(O)c4c3C2=O)NC(=O)/C(C)=C\C=C\[C@H](C)[C@H](O)[C@@H](C)[C@@H](O)[C@@H](C)[C@H](OC(C)=O)[C@@H]1C [rifampicin, reference compound] | – | – | – | – | – | – | – | – | – | – | > 2 days
